Measurements taken from US20120220581A1, “IMIDAZO[1,2-b]PYRIDAZINE DERIVATIVES AND THEIR USE AS PDE10 INHIBITORS” (Janssen-Cilag, S.A., priority 2009, published 2012).

What was measured:
PDE5A3 = PDE5A3 (Homo sapiens, UniProt O76074); assay: In vitro PDE selectivity assay (SPA), PDE5A3; format: biochemical; details: hPDE5A3; read-out: PDE 5A3 (expressed as pIC50) (converted)
Procedure, shortened: (§1)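 Inhibition of each PDE isoform was measured by scintillation proximity assay with ³H-cyclic nucleotide substrate, using incubation buffer, substrate concentration, incubation time and stop solution adapted per isoform. Compounds were tested in dose-response against 1% DMSO controls and enzyme-free blanks. IC50 came from a least-squares fit of blank-subtracted % of control versus concentration.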

[1] = molecular target: other members of the PDE family (Homo sapiens, UniProt O00408); assay: In vitro PDE selectivity assay (SPA), other members of the PDE family (protocols in Table A); format: biochemical; details: hPDE2A; read-out: PDE 2A (expressed as pIC50) (converted)
Procedure, shortened: as §1

[2] = molecular target: other members of the PDE family (Homo sapiens, UniProt O76083); assay: as above; format: biochemical; details: hPDE9A; read-out: PDE 9A (expressed as pIC50) (converted)
Procedure, shortened: as §1

[3] = molecular target: other members of the PDE family (Homo sapiens, UniProt Q13946); assay: as above; format: biochemical; details: hPDE7A1; read-out: PDE 7A (expressed as pIC50) (converted)
Procedure, shortened: as §1

[4] = molecular target: other members of the PDE family (Homo sapiens, UniProt Q14432); assay: as above; format: biochemical; details: hPDE3A; read-out: PDE 3A (expressed as pIC50) (converted)
Procedure, shortened: as §1

[5] = molecular target: other members of the PDE family (Homo sapiens, UniProt Q9HCR9); assay: as above; format: biochemical; details: hPDE11A4; read-out: PDE 11A4 (expressed as pIC50) (converted)
Procedure, shortened: as §1

[6] = tested on: PCP-induced hyperlocomotion in rats; assay: PCP-induced hyperlocomotion in rats; format: in vivo; details: Rattus norvegicus
Description: Motor activity [horizontal activity (locomotion) and vertical activity (rearing)] was recorded in male Wiga rats (body weight: 175-275 g; housed overnight in groups of 7 rats) using microprocessor-based activity monitors (MED Associates; length×width×height: 43.2×43.2×41.5 cm) over a period of 30 min. The resolution of the system was set at 100 msec. Total distance was defined as the distance traveled, measured by changes in the number or location of interrupted xy-beams (located in two arrays of 32 infrared light beams (1.25 cm apart) perpendicular to each other in a horizontal plane 2.0 cm above the floor). Vertical activity was defined as the number of periods of continuous breaks reported by an infrared array of 32 light beams in a horizontal plane 13 cm above the floor. The intensity of the light within the activity meters (measured in the centre at floor level) ranged between 110 and 130 LUX.
Male Wiga rats (200 to 260 g) were pretreated with test compound or solvent (10 ml/kg, s.c.) and placed in individual cages. At a predefined interval thereafter (60 min.), the rats were challenged with PCP (1.25 mg/kg, i.v.) and motor activity was measured over a period of 30 min starting immediately after the PCP challenge. […]

[7] = tested on: conditioned avoidance response in rats; assay: Conditioned avoidance response (CAR) test; format: in vivo; details: Rattus norvegicus
Source text: The apparatus consisted of an inner box surrounded by an outer box. The inner box was composed of four walls of transparent, synthetic material (length×width×height: 30×30×30 cm), an open top, and a grid floor made of 15 pairs of iron bars (2 mm diameter; 6 mm inter-bar distance). Odd and even bars were connected with a source of alternative current (1.0 mA; Coulbourn Instruments Solid State Shocker/Distributor), which could be interrupted by a switch. The outer box was composed of the same material (length×width×height: 40×40×36 cm), also with an open top, with a distance of 5 cm between the inner and outer box on all sides. To decrease the amount of environmental stimuli, three walls of the outer box were made non-transparent. The front wall was left transparent to allow the necessary inspection of the animal during the test. The upper edge of the outer and inner box served as a target for the rats on which to jump with fore- and hind-paws, respectively.
From their arrival in the laboratory on the experimental day, male Wiga Wistar rats (230±30 g) were housed in individual cages provided with bedding material.
The rats were tested 3 times, i.e. at 60, 90 and 120 min after the injection of test compound or solvent. Latency to avoidance was recorded. The median avoidance response obtained over the three experimental sessions for each rat were used for further calculations.

[8] = tested on: SCH-23390-induced hypolocomotion in mice; assay: SCH-23390-induced hypolocomotion in mice; format: in vivo; details: Mus musculus
Description: SCH-23390 (0.08 mg/kg, i.v.)-induced hypolocomotion was evaluated over a 30-min period starting immediately after the SCH-23390 challenge in male NMRI mice pretreated 0.5 h earlier with test compound or solvent. Averaged activity in solvent-treated control mice was 1540±559 counts (mean±SD; n=103). Criterion for drug-induced reversal of the SCH-23390-induced hypolocomotion: total distance: >2500 counts (2.9% false positives in controls).

Sequence of other members of the PDE family (Homo sapiens, UniProt Q13946) (Q13946 whole entry): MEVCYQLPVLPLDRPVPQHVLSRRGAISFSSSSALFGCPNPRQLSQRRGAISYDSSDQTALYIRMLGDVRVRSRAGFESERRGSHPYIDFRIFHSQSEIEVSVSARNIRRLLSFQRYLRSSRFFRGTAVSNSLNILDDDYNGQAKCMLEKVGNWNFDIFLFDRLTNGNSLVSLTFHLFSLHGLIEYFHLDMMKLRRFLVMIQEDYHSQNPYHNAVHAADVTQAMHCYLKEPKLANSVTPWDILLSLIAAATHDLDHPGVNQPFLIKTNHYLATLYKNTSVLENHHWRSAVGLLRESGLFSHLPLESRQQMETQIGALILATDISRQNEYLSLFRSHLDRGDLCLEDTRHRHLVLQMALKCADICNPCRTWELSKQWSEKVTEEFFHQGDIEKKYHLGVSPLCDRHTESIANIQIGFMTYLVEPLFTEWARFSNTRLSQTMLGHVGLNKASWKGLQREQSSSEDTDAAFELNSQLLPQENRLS
Sequence of other members of the PDE family (Homo sapiens, UniProt Q9HCR9) (Q9HCR9 whole entry): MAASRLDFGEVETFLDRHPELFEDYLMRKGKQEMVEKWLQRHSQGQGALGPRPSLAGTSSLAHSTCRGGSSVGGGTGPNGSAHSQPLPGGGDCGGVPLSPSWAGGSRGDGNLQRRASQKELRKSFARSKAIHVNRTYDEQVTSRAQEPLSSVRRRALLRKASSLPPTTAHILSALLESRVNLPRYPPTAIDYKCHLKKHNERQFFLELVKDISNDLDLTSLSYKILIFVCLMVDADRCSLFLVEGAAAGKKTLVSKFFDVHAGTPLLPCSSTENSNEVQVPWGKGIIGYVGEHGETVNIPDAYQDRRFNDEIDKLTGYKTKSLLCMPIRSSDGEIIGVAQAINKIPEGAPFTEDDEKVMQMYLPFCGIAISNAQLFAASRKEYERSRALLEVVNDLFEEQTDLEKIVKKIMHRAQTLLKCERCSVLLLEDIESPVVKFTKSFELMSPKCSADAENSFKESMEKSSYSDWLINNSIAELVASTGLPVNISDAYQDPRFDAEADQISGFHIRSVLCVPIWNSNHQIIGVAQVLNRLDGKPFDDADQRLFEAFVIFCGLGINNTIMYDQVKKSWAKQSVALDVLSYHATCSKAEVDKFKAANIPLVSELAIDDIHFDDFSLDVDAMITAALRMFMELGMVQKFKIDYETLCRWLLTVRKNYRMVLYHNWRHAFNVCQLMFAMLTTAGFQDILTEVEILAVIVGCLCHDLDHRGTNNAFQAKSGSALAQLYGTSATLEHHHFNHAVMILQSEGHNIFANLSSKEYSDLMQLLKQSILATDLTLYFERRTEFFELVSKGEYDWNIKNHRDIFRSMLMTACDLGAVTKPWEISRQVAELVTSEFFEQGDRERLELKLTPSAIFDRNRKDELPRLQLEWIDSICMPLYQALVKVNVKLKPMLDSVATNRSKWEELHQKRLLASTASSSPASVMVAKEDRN
Sequence of other members of the PDE family (Homo sapiens, UniProt O76083) (O76083 whole entry): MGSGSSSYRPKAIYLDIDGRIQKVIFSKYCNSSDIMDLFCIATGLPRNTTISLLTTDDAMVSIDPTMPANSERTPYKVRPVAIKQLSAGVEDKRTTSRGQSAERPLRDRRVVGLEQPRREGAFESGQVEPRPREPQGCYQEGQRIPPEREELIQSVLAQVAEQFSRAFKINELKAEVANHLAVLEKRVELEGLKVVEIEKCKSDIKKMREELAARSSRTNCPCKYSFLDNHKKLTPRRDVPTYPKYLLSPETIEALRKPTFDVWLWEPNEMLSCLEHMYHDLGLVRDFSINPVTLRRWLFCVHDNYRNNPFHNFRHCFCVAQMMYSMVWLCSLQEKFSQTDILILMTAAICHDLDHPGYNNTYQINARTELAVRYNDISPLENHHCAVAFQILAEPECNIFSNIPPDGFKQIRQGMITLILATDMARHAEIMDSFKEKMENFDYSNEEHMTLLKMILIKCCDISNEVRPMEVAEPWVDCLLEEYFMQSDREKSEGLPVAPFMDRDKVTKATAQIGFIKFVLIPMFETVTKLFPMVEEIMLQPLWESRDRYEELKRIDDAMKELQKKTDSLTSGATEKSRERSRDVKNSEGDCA
Sequence of other members of the PDE family (Homo sapiens, UniProt Q14432) (Q14432 whole entry): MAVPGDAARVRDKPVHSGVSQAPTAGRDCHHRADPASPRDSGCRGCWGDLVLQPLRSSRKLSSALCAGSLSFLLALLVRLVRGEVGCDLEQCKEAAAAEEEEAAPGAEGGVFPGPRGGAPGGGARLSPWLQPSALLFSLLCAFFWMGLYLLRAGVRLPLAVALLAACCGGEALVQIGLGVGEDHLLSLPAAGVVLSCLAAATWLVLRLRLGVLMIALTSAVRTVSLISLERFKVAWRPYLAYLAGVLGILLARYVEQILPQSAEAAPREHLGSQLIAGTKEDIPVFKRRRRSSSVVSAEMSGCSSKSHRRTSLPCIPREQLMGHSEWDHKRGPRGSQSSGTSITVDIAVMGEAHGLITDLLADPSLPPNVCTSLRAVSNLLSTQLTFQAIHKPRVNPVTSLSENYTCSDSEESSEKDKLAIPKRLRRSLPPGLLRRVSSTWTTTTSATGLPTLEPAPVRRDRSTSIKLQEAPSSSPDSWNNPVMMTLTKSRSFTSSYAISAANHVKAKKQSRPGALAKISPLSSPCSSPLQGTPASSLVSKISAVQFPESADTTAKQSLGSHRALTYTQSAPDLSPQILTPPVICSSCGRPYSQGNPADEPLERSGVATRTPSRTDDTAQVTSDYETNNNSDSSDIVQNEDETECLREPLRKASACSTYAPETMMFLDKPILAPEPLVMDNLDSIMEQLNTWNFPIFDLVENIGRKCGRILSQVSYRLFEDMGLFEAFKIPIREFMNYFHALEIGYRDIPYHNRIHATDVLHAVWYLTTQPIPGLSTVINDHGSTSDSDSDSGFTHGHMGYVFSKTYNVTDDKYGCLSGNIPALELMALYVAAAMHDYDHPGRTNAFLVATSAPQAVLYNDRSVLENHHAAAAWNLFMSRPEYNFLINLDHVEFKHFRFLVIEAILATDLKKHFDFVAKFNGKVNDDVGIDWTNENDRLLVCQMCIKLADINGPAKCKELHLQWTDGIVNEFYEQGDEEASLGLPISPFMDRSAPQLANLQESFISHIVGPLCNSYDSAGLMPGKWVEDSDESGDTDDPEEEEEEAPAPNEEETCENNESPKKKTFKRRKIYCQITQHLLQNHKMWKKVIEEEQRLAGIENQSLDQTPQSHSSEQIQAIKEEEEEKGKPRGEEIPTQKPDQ
Sequence of other members of the PDE family (Homo sapiens, UniProt O00408) (O00408 whole entry): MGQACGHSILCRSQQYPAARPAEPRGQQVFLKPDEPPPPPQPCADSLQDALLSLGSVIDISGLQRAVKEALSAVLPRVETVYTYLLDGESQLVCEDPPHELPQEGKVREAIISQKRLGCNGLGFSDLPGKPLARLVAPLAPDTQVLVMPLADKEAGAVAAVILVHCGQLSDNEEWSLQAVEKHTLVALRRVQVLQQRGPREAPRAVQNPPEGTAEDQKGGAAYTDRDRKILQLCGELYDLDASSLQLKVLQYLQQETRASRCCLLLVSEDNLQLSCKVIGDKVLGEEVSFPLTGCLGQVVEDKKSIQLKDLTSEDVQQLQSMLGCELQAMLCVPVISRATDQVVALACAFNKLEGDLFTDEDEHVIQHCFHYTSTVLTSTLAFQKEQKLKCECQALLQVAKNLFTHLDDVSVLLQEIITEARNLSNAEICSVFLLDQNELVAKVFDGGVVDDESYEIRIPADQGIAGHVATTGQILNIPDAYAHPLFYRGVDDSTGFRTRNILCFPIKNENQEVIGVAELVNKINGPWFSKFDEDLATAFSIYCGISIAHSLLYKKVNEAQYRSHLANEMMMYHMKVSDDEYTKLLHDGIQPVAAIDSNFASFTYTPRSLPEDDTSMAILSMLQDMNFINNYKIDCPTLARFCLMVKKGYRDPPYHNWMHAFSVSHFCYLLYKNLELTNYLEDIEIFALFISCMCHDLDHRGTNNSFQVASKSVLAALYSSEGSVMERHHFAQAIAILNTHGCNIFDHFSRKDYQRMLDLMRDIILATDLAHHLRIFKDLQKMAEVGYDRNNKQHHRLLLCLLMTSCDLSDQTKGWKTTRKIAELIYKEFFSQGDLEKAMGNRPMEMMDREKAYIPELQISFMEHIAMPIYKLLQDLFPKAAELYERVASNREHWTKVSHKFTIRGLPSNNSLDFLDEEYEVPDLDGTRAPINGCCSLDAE

SMILES	IC50 (PDE5A3) [µM]	IC50 [1] [µM]	IC50 [2] [µM]	IC50 [3] [µM]	IC50 [4] [µM]	IC50 [5] [µM]	ED50 [6] [mg/kg]	ED50 [7] [mg/kg]	ED50 [8] [mg/kg]
COCCc1ccc(-c2c(C)nc3c(N4CCOCC4)ccnn23)cn1 [compound 1, 3-[6-(2-methoxyethyl)-3-pyridinyl]-2-methyl-8-(4-morpholinyl)-imidazo[1,2-b]pyridazine]	17	39.8	> 100	69.2	97.7	74.1	2	4.7	7.1
COCCOc1ccc(-c2c(C)nc3c(-c4ccncc4)ccnn23)cn1 [compound 21, 3-[6-(2-methoxyethoxy)-3-pyridinyl]-2-methyl-8-(4-pyridinyl)-imidazo[1,2-b]pyridazine]	19.1	47.9	> 50.1	> 50.1	> 50.1	> 50.1	6.1	5.4	5
